Measured values from US20100216834A1, “HIV INTEGRASE INHIBITORS” (priority 2006, published 2010).
Where two headings read alike, the source gives them in different places.

How the values were obtained:
[1] = biological target: T1, recombinant integrase (HIV integrase) (Human immunodeficiency virus type 1 group M subtype B, UniProt P04585); assay: HIV integrase assay: strand transfer catalyzed by recombinant integrase; type: biochemical
T1 construct: Strand Transfer Catalyzed by Recombinant Integrase
Experimental: Assays for the strand transfer activity of integrase were conducted in accordance with WO 02/30930 for recombinant integrase. […] For example, the compounds prepared in Examples 1 to 3 were tested in the integrase assay and found to have the following IC50 values:
Further description on conducting the assay using preassembled complexes is found in Wolfe, A. L. et al., J. Virol. 1996, 70: 1424-1432, Hazuda et al., J. Virol. 1997, 71: 7005-7011; Hazuda et al., Drug Design and Discovery 1997, 15: 17-24; and Hazuda et al., Science 2000, 287: 646-650.

HIV = assay: Assay for inhibition of HIV replication (spread assay): acute HIV infection of T-lymphoid cells; type: cell-based
Experimental: Assays for the inhibition of acute HIV infection of T-lymphoid cells were conducted in accordance with Vacca, J. P. et al., Proc. Natl. Acad. Sci. USA 1994, 91: 4096. […] For example, the compounds of Examples 1 to 3 were tested in this assay and found to have the following IC95 values: […]

[2] = IC50 (inhibition of strand transfer activity)

SMILES | IC50 [1, 2] [nM] | IC95 in the presence of 10% FBS (HIV) [nM] | IC50 ([1]; read-out: IC50 (inhibition of strand transfer activity)) [nM]
CC1CCCN(C)C(=O)c2c3c(c(O)c(=O)n21)C(=O)N(Cc1ccc(F)c(Cl)c1)CC3 (single isomer, unassigned) [Ex. 3 - Diasteromer B-3, 11-(3-Chloro-4-fluorobenzyl)-9-hydroxy-2,6-dimethyl-3,4,5,6,12,13-hexahydro-2H[1,4]diazocino[2,1-a]-2,6-naphthyridine-1,8,10(11H)-trione] | 17 | 11 | 
CN1C[C@H](O)C(C)(C)Cn2c(c3c(c(O)c2=O)C(=O)N(Cc2ccc(F)c(Cl)c2)CC3)C1=O (single isomer, unassigned) [Ex. 1 - Isomer A-1] | 14 | 15 | 
CN1C[C@H](O)C(C)(C)Cn2c(c3c(c(O)c2=O)C(=O)N(Cc2ccc(F)c(Cl)c2)CC3)C1=O (single isomer, unassigned) [Ex. 1 - Isomer B-1] | 21 | 31 | 
CC1CCCN(C)C(=O)c2c3c(c(O)c(=O)n21)C(=O)N(Cc1ccc(F)c(Cl)c1)CC3 (single isomer, unassigned) [Ex. 3 - Diasteromer C-3, 11-(3-Chloro-4-fluorobenzyl)-9-hydroxy-2,6-dimethyl-3,4,5,6,12,13-hexahydro-2H[1,4]diazocino[2,1-a]-2,6-naphthyridine-1,8,10(11H)-trione] | 8 | 250 | 
CC1CCCN(C)C(=O)c2c3c(c(O)c(=O)n21)C(=O)N(Cc1ccc(F)c(Cl)c1)CC3 (single isomer, unassigned) [Ex. 3 - Diasteromer D-3, 11-(3-Chloro-4-fluorobenzyl)-9-hydroxy-2,6-dimethyl-3,4,5,6,12,13-hexahydro-2H[1,4]diazocino[2,1-a]-2,6-naphthyridine-1,8,10(11H)-trione] | 8 | 8 | 
CC1CCCN(C)C(=O)c2c3c(c(O)c(=O)n21)C(=O)N(Cc1ccc(F)c(Cl)c1)CC3 (single isomer, unassigned) [Ex. 3 - Diasteromer A-3, 11-(3-Chloro-4-fluorobenzyl)-9-hydroxy-2,6-dimethyl-3,4,5,6,12,13-hexahydro-2H[1,4]diazocino[2,1-a]-2,6-naphthyridine-1,8,10(11H)-trione] | 17 | 125 | 
CN1C[C@@H](O)C(C)(C)Cn2c(c3c(c(O)c2=O)C(=O)N(Cc2ccc(F)c(Cl)c2)CC3)C1=O (single isomer, unassigned) [Ex. 2] |  | 31 | 3
